# ChEMBL document CHEMBL1157303, “Bioactive triterpenoids from Salvia species” (J Nat Prod, 2006)
# Assays:
# [1] = Inhibition of rat DNA polymerase in absence of bovine serum albumin
# [2] = Inhibition of rat DNA polymerase in presence of bovine serum albumin
# [3] = test system: Mus musculus; experiment: Antiinflammatory activity against croton oil-induced ear edema in mouse; type: functional
IC50 [1],IC50 [2],Structure (SMILES),ID50 [3]
4.8 µM,8.5 µM,C[C@H]1[C@H](C)CC[C@]2(C(=O)O)CC[C@]3(C)C(=CC[C@@H]4[C@@]5(C)CC[C@H](O)C(C)(C)[C@@H]5CC[C@]43C)[C@H]12 [URSOLIC ACID],0.14 µmol
3.7 µM,7.5 µM,CC1(C)CC[C@]2(C(=O)O)CC[C@]3(C)C(=CC[C@@H]4[C@@]5(C)CC[C@H](O)C(C)(C)[C@@H]5CC[C@]43C)[C@@H]2C1 [OLEANOLIC_ACID],–
–,–,COc1ccc2c(c1)c(CC(=O)O)c(C)n2C(=O)c1ccc(Cl)cc1 [INDOMETHACIN],0.26 µmol
